From publication PMC7993393, “8-Mercaptoguanine-based inhibitors of Mycobacterium tuberculosis dihydroneopterin aldolase: synthesis, in vitro inhibition and docking studies” (Journal of Enzyme Inhibition and Medicinal Chemistry, 2021)

Assays:
MtFolB [1] = target: T1, MtFolB (Mycobacterium tuberculosis, UniProt P9WNC5); assay: MtFolB aldolase activity inhibition, continuous fluorescence assay (IC50); format: biochemical
T1 construct: made in house

MtFolB [2] = target: T1, MtFolB; assay: Mode of inhibition and inhibition constants on MtFolB aldolase activity (Lineweaver-Burk); format: biochemical; conditions: towards DHNP; for Inhibition mode: Lineweaver-Burk plots; for Ki: enzyme-inhibitor complex, read-out: Kis; for Ki / Kii: 300 nM MtFolB; for Kii: enzyme-substrate-inhibitor complex
SaFolB = system: SaFolB; design: method as in PMID 15027862; conditions: read-out: IC50 against SaFolB; cited from earlier work
[3] = target: 6-hydroxymethyl-7,8-dihydropterin pyrophosphokinase from S. aureus (SaHPPK); design: method as in PMID 22276115; conditions: read-out: IC50 against SaHPPK; cited from earlier work

T1 sequence (P9WNC5 whole entry): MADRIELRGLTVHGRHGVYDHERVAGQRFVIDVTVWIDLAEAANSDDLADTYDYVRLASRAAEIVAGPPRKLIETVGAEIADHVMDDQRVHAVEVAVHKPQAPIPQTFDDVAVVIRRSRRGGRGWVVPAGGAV

Compound | IC50 (MtFolB [1]) [µM] | melting point [°C] | other results
Nc1nc2nc(S)[nH]c2c(=O)[nH]1 [8-MG (1), 8-mercaptoguanine] | 0.3 | – | Inhibition mode (MtFolB [2]): Non-competitive; Ki (MtFolB [2]): 0.3 ± 0.1 µM; Kii (MtFolB [2]): 0.6 ± 0.1 µM; IC50 (SaFolB): 1 µM; IC50 [3]: 41 µM
Nc1nc2[nH]c(SCc3ccccc3)nc2c(=O)[nH]1 [Compound 2a, 2-Amino-8-(benzylthio)-1,9-dihydro-6H-purin-6-one] | 7.1 | – | –
Nc1nc2[nH]c(SCc3ccc4ccccc4c3)nc2c(=O)[nH]1 [Compound 2b, 2-Amino-8-((naphthalen-2-ylmethyl)thio)-1,9-dihydro-6H-purin-6-one] | 1.3 | 286 to 287 | Improvement of activity (fold) (MtFolB [1]; IC50 compared to benzyl derivative 2a): more than 5 fold
Nc1nc2[nH]c(SCc3ccccc3F)nc2c(=O)[nH]1 [Compound 2c, 2-Amino-8-((2-fluorobenzyl)thio)-1,9-dihydro-6H-purin-6-one] | 8 | 289 to 290 | –
Nc1nc2[nH]c(SCc3ccc(F)cc3)nc2c(=O)[nH]1 [Compound 2d, 2-Amino-8-((4-fluorobenzyl)thio)-1,9-dihydro-6H-purin-6-one] | 8 | 299 to 300 | –
Nc1nc2[nH]c(SCc3ccccc3Cl)nc2c(=O)[nH]1 [Compound 2e, 2-Amino-8-((2-chlorobenzyl)thio)-1,9-dihydro-6H-purin-6-one] | 4.2 | – | –
Nc1nc2[nH]c(SCc3ccc(Cl)cc3)nc2c(=O)[nH]1 [Compound 2f, 2-Amino-8-((4-chlorobenzyl)thio)-1,9-dihydro-6H-purin-6-one] | 2.2 | 291 to 294 | –
Nc1nc2[nH]c(SCc3ccc(Cl)c(Cl)c3)nc2c(=O)[nH]1 [Compound 2g] | 5.5 | 290 to 291 | IC50 fold higher (MtFolB [1]; IC50 compared to monosubstituted analog 2f): 2.5 fold
Nc1nc2[nH]c(SCc3ccc(Br)cc3)nc2c(=O)[nH]1 [Compound 2h, 2-Amino-8-((4-bromobenzyl)thio)-1,9-dihydro-6H-purin-6-one] | 3 | – | –
Nc1nc2[nH]c(SCC(=O)c3ccccc3)nc2c(=O)[nH]1 [Compound 3a, 2-Amino-8-((2-oxo-2-phenylethyl)thio)-1,9-dihydro-6H-purin-6-one] | 0.9 | > 310 | –
Nc1nc2[nH]c(SCC(=O)c3ccc(Cl)cc3)nc2c(=O)[nH]1 [Compound 3b, 2-Amino-8-((2–(4-chlorophenyl)-2-oxoethyl)thio)-1,9-dihydro-6H-purin-6-one] | 0.3 | 300 to 316 | Inhibition mode (MtFolB [2]): Non-competitive; Ki (MtFolB [2]): 0.4 ± 0.1 µM; Kii (MtFolB [2]): 0.9 ± 0.2 µM
COc1ccccc1C(=O)CSc1nc2nc(N)[nH]c(=O)c2[nH]1 [Compound 3c, 2-Amino-8-((2–(2-methoxyphenyl)-2-oxoethyl)thio)-1,9-dihydro-6H-purin-6-one] | 1.3 | – | –
Nc1nc2[nH]c(SCC(=O)Nc3ccccc3)nc2c(=O)[nH]1 [Compound 4a, 2-((2-Amino-6-oxo-6,9-dihydro-1H-purin-8-yl)thio)-N-phenylacetamide] | 2.2 | – | –
Nc1nc2[nH]c(SCC(=O)Nc3ccc4ccccc4c3)nc2c(=O)[nH]1 [Compound 4b, 2-((2-Amino-6-oxo-6,9-dihydro-1H-purin-8-yl)thio)-N-(naphthalen-2-yl)acetamide] | 0.7 | 286 to 289 | –
Nc1nc2[nH]c(SCC(=O)NCc3ccccc3)nc2c(=O)[nH]1 [Compound 4c, 2-((2-Amino-6-oxo-6,9-dihydro-1H-purin-8-yl)thio)-N-benzylacetamide] | 12.3 | – | –
Nc1nc2[nH]c(SCC(=O)Nc3ccc(F)cc3)nc2c(=O)[nH]1 [Compound 4d, 2-((2-Amino-6-oxo-6,9-dihydro-1H-purin-8-yl)thio)-N-(4-fluorophenyl)acetamide] | 2 | – | –
Nc1nc2[nH]c(SCC(=O)Nc3ccc(Cl)cc3)nc2c(=O)[nH]1 [Compound 4e, 2-((2-Amino-6-oxo-6,9-dihydro-1H-purin-8-yl)thio)-N-(4-chlorophenyl)acetamide] | 0.8 | – | –
Nc1nc2[nH]c(SCC(=O)Nc3ccc(Br)cc3)nc2c(=O)[nH]1 [Compound 4f, 2-((2-Amino-6-oxo-6,9-dihydro-1H-purin-8-yl)thio)-N-(4-bromophenyl)acetamide] | 0.5 | > 310 | Inhibition mode (MtFolB [2]): Competitive; Ki (MtFolB [2]): 0.1 ± 0.03 µM
CCCc1ccc(NC(=O)CSc2nc3c(=O)[nH]c(N)nc3[nH]2)cc1 [Compound 4g, 2-((2-Amino-6-oxo-6,9-dihydro-1H-purin-8-yl)thio)-N-(4-propylphenyl)acetamide] | 0.9 | – | –
CCCCCCCc1ccc(NC(=O)CSc2nc3c(=O)[nH]c(N)nc3[nH]2)cc1 [Compound 4h, 2-((2-Amino-6-oxo-6,9-dihydro-1H-purin-8-yl)thio)-N-(4-heptylphenyl)acetamide] | 0.4 | > 310 | Inhibition mode (MtFolB [2]): Non-competitive; Ki (MtFolB [2]): 0.5 ± 0.1 µM; Kii (MtFolB [2]): 1.2 ± 0.2 µM
